Measurements as given in ChEMBL document CHEMBL5465560, “Selectivity Literature for EUbOPEN Chemogenomic Library” (2024).

Legend:
[1] = target: Dual specificity protein kinase CLK2 (Homo sapiens, UniProt P49760); assay: Selectivity interaction (KinomeScan (DiscoverX)) EUB0000229b CLK2; settings: at 10 µM
[2] = target: NT-3 growth factor receptor (Homo sapiens, UniProt Q16288); assay: Selectivity interaction (KinomeScan (DiscoverX)) EUB0000595a NTRK3; settings: at 10 µM
[3] = target: Tyrosine-protein kinase Lck (Homo sapiens, UniProt P06239); assay: Selectivity interaction (KinomeScan (DiscoverX)) EUB0000695a LCK; settings: at 100 nM
Sequence of Tyrosine-protein kinase Lck (P06239 2-509 limits assumed): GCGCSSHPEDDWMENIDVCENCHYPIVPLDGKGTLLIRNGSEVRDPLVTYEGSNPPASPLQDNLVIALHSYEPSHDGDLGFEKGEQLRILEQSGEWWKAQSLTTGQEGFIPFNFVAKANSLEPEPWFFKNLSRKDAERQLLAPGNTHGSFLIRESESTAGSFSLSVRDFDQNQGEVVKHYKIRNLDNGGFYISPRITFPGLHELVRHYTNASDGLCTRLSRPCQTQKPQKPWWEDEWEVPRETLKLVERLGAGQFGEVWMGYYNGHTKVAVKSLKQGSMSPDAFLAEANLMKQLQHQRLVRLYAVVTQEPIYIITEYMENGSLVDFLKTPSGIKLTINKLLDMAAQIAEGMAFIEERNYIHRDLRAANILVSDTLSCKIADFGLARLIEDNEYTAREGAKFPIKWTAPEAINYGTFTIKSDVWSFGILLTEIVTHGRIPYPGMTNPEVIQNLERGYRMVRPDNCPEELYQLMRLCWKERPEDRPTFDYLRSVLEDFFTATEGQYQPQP

[4] = target: T1, Muscle, skeletal receptor tyrosine-protein kinase (Homo sapiens) (UniProt O15146); assay: Selectivity interaction (KinomeScan (DiscoverX)) EUB0000666a MUSK; settings: at 10 µM
T1 sequence (whole entry): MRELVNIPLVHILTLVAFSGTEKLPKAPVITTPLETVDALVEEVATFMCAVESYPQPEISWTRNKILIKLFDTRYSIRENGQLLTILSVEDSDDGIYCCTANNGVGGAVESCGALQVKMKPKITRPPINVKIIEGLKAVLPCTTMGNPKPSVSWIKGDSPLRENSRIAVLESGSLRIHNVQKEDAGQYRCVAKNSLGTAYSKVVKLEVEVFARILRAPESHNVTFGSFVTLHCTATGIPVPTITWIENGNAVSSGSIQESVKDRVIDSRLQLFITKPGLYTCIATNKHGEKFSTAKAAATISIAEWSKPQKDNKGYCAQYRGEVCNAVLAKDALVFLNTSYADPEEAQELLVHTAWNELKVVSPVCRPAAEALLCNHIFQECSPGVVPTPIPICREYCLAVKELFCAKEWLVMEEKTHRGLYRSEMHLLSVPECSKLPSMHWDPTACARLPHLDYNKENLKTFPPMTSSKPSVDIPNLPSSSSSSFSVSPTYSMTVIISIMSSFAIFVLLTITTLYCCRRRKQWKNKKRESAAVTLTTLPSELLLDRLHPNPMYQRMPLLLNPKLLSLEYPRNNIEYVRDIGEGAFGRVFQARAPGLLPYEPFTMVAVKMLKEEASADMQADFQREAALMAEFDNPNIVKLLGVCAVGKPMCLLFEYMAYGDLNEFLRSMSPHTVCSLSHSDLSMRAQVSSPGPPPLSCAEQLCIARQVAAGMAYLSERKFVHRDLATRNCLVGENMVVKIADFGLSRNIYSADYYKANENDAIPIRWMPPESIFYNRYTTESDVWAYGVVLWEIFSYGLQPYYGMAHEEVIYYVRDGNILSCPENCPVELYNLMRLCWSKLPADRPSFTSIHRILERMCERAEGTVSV

[5] = target: T2, Ephrin type-B receptor 1 (Homo sapiens) (UniProt P54762); assay: Selectivity interaction (KinomeScan (DiscoverX)) EUB0000666a EPHB1; settings: at 10 µM
T2 sequence (whole entry): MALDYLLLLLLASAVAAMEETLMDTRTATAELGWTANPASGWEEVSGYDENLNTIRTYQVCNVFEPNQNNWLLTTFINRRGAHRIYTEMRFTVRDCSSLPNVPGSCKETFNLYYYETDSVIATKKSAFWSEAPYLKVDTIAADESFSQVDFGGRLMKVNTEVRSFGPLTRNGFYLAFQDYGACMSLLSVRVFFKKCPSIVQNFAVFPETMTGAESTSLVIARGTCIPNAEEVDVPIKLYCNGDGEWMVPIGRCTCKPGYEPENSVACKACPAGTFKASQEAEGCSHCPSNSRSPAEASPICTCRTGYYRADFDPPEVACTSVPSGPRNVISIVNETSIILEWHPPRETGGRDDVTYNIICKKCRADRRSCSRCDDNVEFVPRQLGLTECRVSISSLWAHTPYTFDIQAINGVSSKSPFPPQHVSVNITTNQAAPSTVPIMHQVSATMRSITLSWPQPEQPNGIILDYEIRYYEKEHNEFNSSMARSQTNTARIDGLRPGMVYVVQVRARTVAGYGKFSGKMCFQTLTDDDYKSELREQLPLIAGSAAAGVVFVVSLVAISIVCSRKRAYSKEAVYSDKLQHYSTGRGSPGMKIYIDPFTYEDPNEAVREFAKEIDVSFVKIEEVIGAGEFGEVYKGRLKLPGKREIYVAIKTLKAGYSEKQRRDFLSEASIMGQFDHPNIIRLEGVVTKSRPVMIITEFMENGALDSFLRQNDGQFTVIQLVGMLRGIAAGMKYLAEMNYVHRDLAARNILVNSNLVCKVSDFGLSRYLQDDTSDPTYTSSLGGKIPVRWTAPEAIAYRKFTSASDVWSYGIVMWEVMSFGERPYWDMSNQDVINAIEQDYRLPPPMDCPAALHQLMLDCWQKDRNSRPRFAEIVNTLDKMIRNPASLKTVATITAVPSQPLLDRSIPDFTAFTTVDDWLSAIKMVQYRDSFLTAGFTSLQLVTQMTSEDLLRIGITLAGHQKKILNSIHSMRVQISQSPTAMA

[6] = target: Serine/threonine-protein kinase WNK2 (Homo sapiens) (UniProt Q9Y3S1); assay: Selectivity interaction (KinomeScan (DiscoverX)) EUB0001049a WNK2; settings: at 1 µM
[7] = target: Serine/threonine-protein kinase 38 (Homo sapiens) (UniProt Q15208); assay: Selectivity interaction (KinomeScan (DiscoverX)) EUB0000607a STK38; settings: at 10 µM
Sequence of Serine/threonine-protein kinase 38 (Homo sapiens) (Q15208 2-465 limits assumed): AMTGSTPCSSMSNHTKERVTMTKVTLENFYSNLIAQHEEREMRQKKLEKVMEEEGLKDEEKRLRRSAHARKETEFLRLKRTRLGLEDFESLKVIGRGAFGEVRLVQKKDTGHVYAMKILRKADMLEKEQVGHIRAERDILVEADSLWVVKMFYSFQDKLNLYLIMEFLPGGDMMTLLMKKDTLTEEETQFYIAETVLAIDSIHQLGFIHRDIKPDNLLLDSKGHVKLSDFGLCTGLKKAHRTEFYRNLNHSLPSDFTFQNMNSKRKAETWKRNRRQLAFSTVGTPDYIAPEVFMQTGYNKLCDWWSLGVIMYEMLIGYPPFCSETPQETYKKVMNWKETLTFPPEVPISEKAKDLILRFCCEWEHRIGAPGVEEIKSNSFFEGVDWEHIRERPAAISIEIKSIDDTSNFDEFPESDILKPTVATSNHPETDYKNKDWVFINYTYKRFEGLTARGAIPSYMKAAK

[8] = target: DNA-dependent protein kinase catalytic subunit (Homo sapiens) (UniProt P78527); assay: Selectivity interaction (ActivX KiNativ screen (kinase selectivity in THP-1 cell lysates)) EUB0000639a PRKDC; assay type: subcellular; settings: lysate, at 0.01 µM
[9] = target: T3, Cyclin-dependent kinase-like 2 (Homo sapiens) (UniProt Q92772); assay: Selectivity interaction (KinomeScan (DiscoverX)) EUB0000655a CDKL2; settings: at 10 µM
T3 sequence (whole entry): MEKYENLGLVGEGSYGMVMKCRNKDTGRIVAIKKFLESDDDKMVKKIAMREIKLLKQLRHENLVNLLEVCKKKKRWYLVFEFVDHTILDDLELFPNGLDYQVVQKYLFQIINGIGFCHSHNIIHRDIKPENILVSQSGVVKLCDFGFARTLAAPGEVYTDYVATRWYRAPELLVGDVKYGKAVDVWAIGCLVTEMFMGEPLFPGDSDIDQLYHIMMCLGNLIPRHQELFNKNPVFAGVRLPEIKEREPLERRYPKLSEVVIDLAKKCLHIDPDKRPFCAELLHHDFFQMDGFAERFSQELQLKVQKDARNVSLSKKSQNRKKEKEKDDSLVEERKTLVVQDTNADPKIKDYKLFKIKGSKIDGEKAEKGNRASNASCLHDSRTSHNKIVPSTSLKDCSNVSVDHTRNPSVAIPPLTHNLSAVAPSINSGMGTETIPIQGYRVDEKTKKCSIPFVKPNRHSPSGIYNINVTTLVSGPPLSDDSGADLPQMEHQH

[10] = target: Mitogen-activated protein kinase kinase kinase 20 (Homo sapiens) (UniProt Q9NYL2); assay: Selectivity interaction (Ambit KINOMEscan and KiNATiv profiling in Jurkat cells) EUB0000090b MAP3K20; assay type: cell-based; settings: at 1 µM
Sequence of Mitogen-activated protein kinase kinase kinase 20 (Homo sapiens) (Q9NYL2 2-800 limits assumed): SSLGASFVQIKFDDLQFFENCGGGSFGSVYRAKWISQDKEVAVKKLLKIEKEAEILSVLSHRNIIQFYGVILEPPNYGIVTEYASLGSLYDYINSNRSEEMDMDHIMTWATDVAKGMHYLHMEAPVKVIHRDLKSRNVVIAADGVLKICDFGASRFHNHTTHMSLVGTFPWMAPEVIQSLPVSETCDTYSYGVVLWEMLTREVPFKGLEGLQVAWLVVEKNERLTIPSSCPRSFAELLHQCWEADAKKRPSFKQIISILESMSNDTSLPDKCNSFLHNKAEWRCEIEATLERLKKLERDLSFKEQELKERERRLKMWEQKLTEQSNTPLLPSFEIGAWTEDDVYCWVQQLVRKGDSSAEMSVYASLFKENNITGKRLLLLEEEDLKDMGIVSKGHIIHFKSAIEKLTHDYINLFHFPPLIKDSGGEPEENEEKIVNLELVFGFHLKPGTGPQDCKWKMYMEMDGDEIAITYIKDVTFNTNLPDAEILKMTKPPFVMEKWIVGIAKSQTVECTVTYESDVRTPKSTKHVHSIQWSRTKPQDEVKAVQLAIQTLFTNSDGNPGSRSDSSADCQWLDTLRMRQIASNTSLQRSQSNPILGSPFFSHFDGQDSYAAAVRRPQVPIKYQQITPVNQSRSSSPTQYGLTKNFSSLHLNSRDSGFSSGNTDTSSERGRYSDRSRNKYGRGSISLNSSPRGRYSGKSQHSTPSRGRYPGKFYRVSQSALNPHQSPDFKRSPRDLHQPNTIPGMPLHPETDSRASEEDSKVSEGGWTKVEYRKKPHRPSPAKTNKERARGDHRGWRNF

[11] = target: Non-receptor tyrosine-protein kinase TYK2 (Homo sapiens, UniProt P29597); assay: Selectivity interaction (Ambit KINOMEscan and KiNATiv profiling in Jurkat cells) EUB0000090b TYK2; assay type: cell-based; settings: at 1 µM
Sequence of Non-receptor tyrosine-protein kinase TYK2 (P29597 whole entry): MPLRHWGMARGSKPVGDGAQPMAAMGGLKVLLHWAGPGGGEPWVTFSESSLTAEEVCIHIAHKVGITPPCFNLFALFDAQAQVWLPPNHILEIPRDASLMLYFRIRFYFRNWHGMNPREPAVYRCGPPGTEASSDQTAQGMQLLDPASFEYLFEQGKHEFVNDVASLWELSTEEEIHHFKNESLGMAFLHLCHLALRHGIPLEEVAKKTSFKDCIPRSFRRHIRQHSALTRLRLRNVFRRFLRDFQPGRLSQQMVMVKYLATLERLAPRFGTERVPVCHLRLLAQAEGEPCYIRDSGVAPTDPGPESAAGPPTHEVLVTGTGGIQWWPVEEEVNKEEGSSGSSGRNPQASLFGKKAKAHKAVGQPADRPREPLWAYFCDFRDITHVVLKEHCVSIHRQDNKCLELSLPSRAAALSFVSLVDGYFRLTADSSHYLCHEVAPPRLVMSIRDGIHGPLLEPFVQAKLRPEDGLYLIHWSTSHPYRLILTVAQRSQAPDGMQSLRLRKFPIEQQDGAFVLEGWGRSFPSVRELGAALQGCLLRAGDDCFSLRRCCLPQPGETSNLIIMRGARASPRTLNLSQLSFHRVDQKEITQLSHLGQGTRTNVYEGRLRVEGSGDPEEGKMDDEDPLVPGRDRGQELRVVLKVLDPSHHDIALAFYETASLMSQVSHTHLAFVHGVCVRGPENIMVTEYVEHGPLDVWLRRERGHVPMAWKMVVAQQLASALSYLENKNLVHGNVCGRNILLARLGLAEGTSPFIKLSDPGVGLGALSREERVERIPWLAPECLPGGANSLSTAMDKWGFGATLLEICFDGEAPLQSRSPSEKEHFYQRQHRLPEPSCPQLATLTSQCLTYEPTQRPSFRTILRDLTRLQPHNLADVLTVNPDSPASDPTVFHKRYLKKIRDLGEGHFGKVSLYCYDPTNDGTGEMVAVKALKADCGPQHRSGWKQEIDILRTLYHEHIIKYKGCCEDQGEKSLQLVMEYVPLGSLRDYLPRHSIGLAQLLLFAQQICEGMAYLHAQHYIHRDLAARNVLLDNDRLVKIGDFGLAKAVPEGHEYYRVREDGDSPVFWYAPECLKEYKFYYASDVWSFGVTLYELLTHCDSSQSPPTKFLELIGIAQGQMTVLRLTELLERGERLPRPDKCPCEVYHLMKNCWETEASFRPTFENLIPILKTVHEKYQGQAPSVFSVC

Sequence of NT-3 growth factor receptor (Q16288 32-839 limits assumed): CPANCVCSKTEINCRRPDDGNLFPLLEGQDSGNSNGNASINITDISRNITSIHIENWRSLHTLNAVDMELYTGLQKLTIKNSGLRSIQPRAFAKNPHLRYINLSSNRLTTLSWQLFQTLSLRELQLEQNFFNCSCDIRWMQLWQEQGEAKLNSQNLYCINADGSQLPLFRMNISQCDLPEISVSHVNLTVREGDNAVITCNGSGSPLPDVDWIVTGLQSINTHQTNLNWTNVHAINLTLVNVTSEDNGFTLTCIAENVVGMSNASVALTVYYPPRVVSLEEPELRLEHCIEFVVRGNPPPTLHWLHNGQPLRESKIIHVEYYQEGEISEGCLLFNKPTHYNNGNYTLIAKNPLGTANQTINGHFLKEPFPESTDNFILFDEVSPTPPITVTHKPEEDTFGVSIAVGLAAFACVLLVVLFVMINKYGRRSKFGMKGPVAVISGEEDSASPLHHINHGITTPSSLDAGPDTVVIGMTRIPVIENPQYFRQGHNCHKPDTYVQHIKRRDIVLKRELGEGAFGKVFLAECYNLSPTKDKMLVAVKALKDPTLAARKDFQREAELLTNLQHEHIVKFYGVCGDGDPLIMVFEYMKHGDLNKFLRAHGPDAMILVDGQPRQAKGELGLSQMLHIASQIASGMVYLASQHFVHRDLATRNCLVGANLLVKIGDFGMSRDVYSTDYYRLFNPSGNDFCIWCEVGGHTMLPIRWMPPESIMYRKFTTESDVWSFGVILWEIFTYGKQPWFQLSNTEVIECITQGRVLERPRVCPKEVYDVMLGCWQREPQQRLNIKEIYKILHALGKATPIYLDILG
Sequence of Dual specificity protein kinase CLK2 (P49760 whole entry, looked up): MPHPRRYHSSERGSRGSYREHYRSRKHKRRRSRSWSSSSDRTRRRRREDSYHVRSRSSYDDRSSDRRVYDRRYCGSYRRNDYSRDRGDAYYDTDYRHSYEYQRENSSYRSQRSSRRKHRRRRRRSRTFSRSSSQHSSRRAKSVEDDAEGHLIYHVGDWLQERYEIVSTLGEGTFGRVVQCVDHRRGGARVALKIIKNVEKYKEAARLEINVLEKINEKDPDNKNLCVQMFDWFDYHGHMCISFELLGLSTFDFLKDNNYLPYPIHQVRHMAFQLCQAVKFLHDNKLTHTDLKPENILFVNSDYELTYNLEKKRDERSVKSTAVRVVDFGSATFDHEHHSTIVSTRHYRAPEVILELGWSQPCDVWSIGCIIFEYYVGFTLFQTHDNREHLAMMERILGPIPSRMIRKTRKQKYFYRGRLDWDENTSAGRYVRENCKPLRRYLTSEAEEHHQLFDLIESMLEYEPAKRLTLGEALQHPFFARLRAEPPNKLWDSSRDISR

`COc1cc(N(C)c2ccnc3ccc(C(F)(F)F)cc23)cc(OC)c1OC` gave a % binding [1] of 85%.
For `COCC(=O)NC/C=C/c1ccc2ncnc(Nc3ccc(Oc4ccc(C)nc4)c(C)c3)c2c1` [CP-724714], the % of control [2] was 93%.
With `Cc1cc(F)c(C(=O)Nc2cccc(-c3nncn3C(C)C)n2)cc1-n1cnc(C2CC2)c1` the % of control [3] was 86%.
With `O=C(NOC[C@H](O)CO)c1ccc(F)c(F)c1Nc1ccc(I)cc1F` the % of control [4] was 68% and the % of control [5] was 100%.
For `COc1cc(Nc2nc(C)cc(-c3cnn4nc(OC)ccc34)n2)cc(C(F)(F)F)c1`, the % of control [6] was 100%.
With `CNC(=O)Nc1ccc(-c2nc(N3CC4CCC(C3)O4)c3cnn(C4CCC5(CC4)OCCO5)c3n2)cc1` the % of control [7] was 100%.
In the case of `CC[C@@H]1[C@H](F)C(=O)N[C@@H]1COc1nccc2cc(C(N)=O)c(OC)cc12` [ZIMLOVISERTIB], the % of inhibition [8] is reported as -2.2%.
`CN(C)CCOc1ccc(-c2nc(-c3ccncc3)c(-c3ccc4c(c3)CC/C4=N\O)[nH]2)cc1` showed a % of control [9] of 100%.
`CN(C)C/C=C/C(=O)Nc1ccc(C(=O)N2CCCC(Nc3ncc(Cl)c(-c4c[nH]c5ccccc45)n3)C2)cc1` (stereo unspecified) showed a % of control [10] of 89% and a % of control [11] of 94%.
